Data reported in ChEMBL document CHEMBL1126775, “A pharmacological, crystallographic, and quantum chemical study of new inotropic agents” (J Med Chem, 1993).
Where “and” joins values, the source holds several entries; their conditions need not be identical. Equal values may be shown once.

Columns and labels:
[1] = species: Cavia porcellus; assay: Effect on contractile force of spontaneously beating atria from reserpine treated guinea pigs at the concentration of 10 e-3 M (negative ionotropic effect); type: functional
[2] = species: Cavia porcellus; assay: Effect on contractile force of spontaneously beating atria from reserpine treated guinea pigs at the concentration of 10 e-5 M; type: functional
[3] = species: Cavia porcellus; assay: Effect on contractile force of spontaneously beating atria from reserpine treated guinea pigs at the concentration of 2 x 10 e-3 M (negative ionotropic effect); type: functional
[4] = species: Cavia porcellus; assay: Effect on contractile force of spontaneously beating atria from reserpine treated guinea pigs at the concentration of 5x 10 e-4 M (negative ionotropic effect); type: functional
[5] = species: Cavia porcellus; assay: Effect on contractile force of spontaneously beating atria from reserpine treated guinea pigs at the concentration of 5x 10 e-5 M (negative ionotropic effect); type: functional
[6] = species: Cavia porcellus; assay: Effect on frequency rate of spontaneously beating atria from reserpine treated guinea pigs at the concentration of 10 e-3 M (negative chronotropic ionotropic effect); type: functional
[7] = species: Cavia porcellus; assay: Effect on frequency rate of spontaneously beating atria from reserpine treated guinea pigs at the concentration of 10 e-4 M (negative chronotropic ionotropic effect); type: functional
[8] = species: Cavia porcellus; assay: Effect on frequency rate of spontaneously beating atria from reserpine treated guinea pigs at the concentration of 2 x 10 e-3 M (negative chronotropic ionotropic effect); type: functional
[9] = species: Cavia porcellus; assay: Effect on frequency rate of spontaneously beating atria from reserpine treated guinea pigs at the concentration of 5 x 10 e-4 M (negative chronotropic ionotropic effect); type: functional
[10] = species: Cavia porcellus; assay: Effect on contractile force of spontaneously beating atria from reserpine treated guinea pigs at the concentration of 10 e-4 M (negative ionotropic effect); type: functional
[11] = species: Cavia porcellus; assay: Effect on frequency rate of spontaneously beating atria from reserpine treated guinea pigs at the concentration of 5 x 10 e-5 M (negative chronotropic ionotropic effect)
[12] = species: Cavia porcellus; assay: Effect on contractile force of spontaneously beating atria from reserpine treated guinea pigs at the concentration of 2 x 10 e-3 M; type: functional
[13] = species: Cavia porcellus; assay: Effect on contractile force of spontaneously beating atria from reserpine treated guinea pigs at the concentration of 5x 10 e-5 M; type: functional
[14] = species: Cavia porcellus; assay: Effect on frequency rate of spontaneously beating atria from reserpine treated guinea pigs at the concentration of 10 e-5 M; type: functional
[15] = species: Cavia porcellus; assay: Effect on contractile force of spontaneously beating atria from reserpine treated guinea pigs at the concentration of 10 e-4 M; type: functional
[16] = species: Cavia porcellus; assay: Effect on frequency rate of spontaneously beating atria from reserpine treated guinea pigs at the concentration of 10 e-3 M; type: functional
[17] = species: Cavia porcellus; assay: Effect on frequency rate of spontaneously beating atria from reserpine treated guinea pigs at the concentration of 10 e-4 M; type: functional
[18] = species: Cavia porcellus; assay: Effect on frequency rate of spontaneously beating atria from reserpine treated guinea pigs at the concentration of 2 x 10 e-3 M; type: functional
[19] = species: Cavia porcellus; assay: Effect on frequency rate of spontaneously beating atria from reserpine treated guinea pigs at the concentration of 5 x 10 e-4 M; type: functional
[20] = species: Cavia porcellus; assay: Effect on contractile force of spontaneously beating atria from reserpine treated guinea pigs at the concentration of 10 e-3 M; type: functional
[21] = species: Cavia porcellus; assay: Effect on contractile force of spontaneously beating atria from reserpine treated guinea pigs at the concentration of 5x 10 e-4 M; type: functional

Compound | Increase [1] [%] | Increase [2] [%] | Increase [3] [%] | Increase [4] [%] | Increase [5] [%] | Increase [6] [%] | Increase [7] [%] | Increase [8] [%] | Increase [9] [%] | Increase [10] [%] | Increase [11] | Increase [12] [%] | Increase [13] [%] | Increase [14] | Increase [15] [%] | Increase [16] [%] | Increase [17] [%] | Increase [18] [%] | Increase [19] [%] | Increase [20] [%] | also measured
O=C(O)c1cc(C(=O)c2ccccc2)c(-c2ccccc2)nc1O | -90.39 | 2.45 | -100 | -61.56 | -1.52 | -25.3 | -5.31 | -35.93 | -14.43 | -10.02 | -2.23% and -3.38% | – | – | – | – | – | – | – | – | – | –
O=C(O)c1cc2c(nc1O)CC(c1ccccc1)CC2=O (stereo not given) | -23.77 | 1.53 | – | -7.59 | – | -13.88 | -1.21 | -27.07 | -4.58 | -1.21 | – | -27.77 | 2.21 | 0.58% and 1.22% | – | – | – | – | – | – | –
CC(C)C(=O)c1cc(C#N)c(O)nc1C(C)C | -67.64 | 8.22 | -86.43 | -34.43 | – | – | – | – | – | – | – | – | 11.62 | 2.33% and 5.14% | 1.42 | 22.83 | 9.64 | 16.27 | 18.85 | – | –
CC(C)C(=O)c1cc(C(=O)O)c(O)nc1C(C)C | – | 3.46 | -99.99 | -49.63 | – | – | – | – | – | -8.88 | – | – | 3.21 | 0.58% and 0.75% | – | 16.19 | 6.01 | 11.35 | 23.17 | -82.26 | –
CC(C)C(=O)c1ccc(O)nc1C(C)C | -26.37 | 5.34 | -44.47 | -9.42 | – | – | -0.99 | – | – | – | -3.28% and -5.14% | – | 11.69 | – | 16.38 | 26.33 | – | 32.13 | 20.8 | – | –
CC1CC(=O)c2cc(C(=O)O)c(O)nc2C1 (stereo not given) | – | 2.55 | – | – | – | – | – | – | – | – | – | 11.38 | 3.78 | 1.5% and 2.78% | 4.57 | 7.38 | 3.58 | 10.36 | 6.53 | 8.37 | Increase [21]: 8.53%
N#Cc1cc(C(=O)c2ccccc2)c(-c2ccccc2)nc1O | -35.54 | 1.22 | -39.43 | -32.19 | -6.67 | -8.29 | -3.36 | -9.96 | -6.26 | -22.26 | -3.01% | – | – | 0.5% | – | – | – | – | – | – | –
CC1(C)CC(=O)c2ccc(O)nc2C1 | – | 0 | – | -5.5 | -3.45 | – | – | – | – | -3.46 | – | 4.71 | – | 0% and 1.27% | – | 1.06 | 1.05 | 2.65 | 1.09 | 2.45 | –
O=C1CCCc2nc(O)ccc21 | – | 0.48 | – | – | – | – | – | – | – | – | – | 26.56 | 7.65 | 0% | 14.7 | 15.52 | 6.26 | 18.17 | 12.44 | 25.64 | Increase [21]: 23.87%
